Earlier results, collected in patent US11053249B2, “Proteasome inhibiting β-lactam prodrugs useful for the treatment of cancer and neurodegenerative disorders” (Vita Api, priority 2016, dated 2021).

Details: Hogan & Corey, 2005, 2007

experimental infrared C═O stretching frequency: 1756 cm⁻¹
Structure (SMILES): CC(C)C(O)[C@@]12NC(=O)[C@H](CCCl)[C@@H]1NC2=O (stereo partly drawn) [initial β-lactam]
